Results reported in patent US20220098228A1, “METHODS AND COMPOSITIONS FOR IMPROVING THE IMMUNE SYSTEM AND PROVIDING IMMUNO-PROTECTION” (Natreon, Inc., priority 2020, published 2022).
Marks after values point to notes of the source that are not given here.

How the values were obtained:
peritoneal macrophages [1] = assay: NBT reduction assay in peritoneal macrophages, cyclophosphamide-induced immunosuppression (Example II); type: in vivo, Swiss albino mice
Procedure: (§1) The mice were acclimatized for one week in the laboratory conditions, before being used in the experiment. All experiments were conducted between 10.00 hr and 14.00 hr. Principles of laboratory animal care (NIH publication no. 85-23, revised 1985) were followed.
(§2) All test compounds (DBPs and DBP glycosides) were suspended in 0.3% of CMC (Carboxymethyl Cellulose) solutions of distilled water and were administered orally for 7 days by using an intubation canula. The volume of dose was 100 μl/10 g body weight. Cyclophosphamide was dissolved in distilled water and was injected (250 mg/kg, i.p.) on day one and volume of dose was 100 μl/10 g body weight. Control animals received equivalent volume of the vehicles CMC (0.3%) solutions only.
On day seven all the animals were sacrificed under ether anesthesia and peritoneal macrophages were lavaged using ice cold phosphate buffer saline (PBS: 0.15M NaCl pH-7.4). After centrifugation (3000 rpm×10 min) at 4° C. the pellet was re-suspended in PBS and cell viability was confirmed by trypan blue exclusion method. (Bala A, Haldar P K, Kar B, Naskar S and Mazumder U K, “Carbon tetrachloride: A hepatotoxin causes oxidative stress in murine peritoneal macrophage and peripheral blood lymphocyte cells” Immunopharmacol. and Immunotoxicol. 34(1): 157-162 (2012)).
Preparation of NBT solution: 0.2% NBT (nitroblue tetrazolium) in PB (Phosphate Buffer, pH 7.4), 5% dextrose and HBSS (Hank's balanced salt solution). The three solutions were mixed in 6:2:4 ratios. (Saxena A K, Singh K P, Srivastava S N, Shukla L J and Shanker R., “Immunomodulating effects of caffeine in rodents” Ind J Exptl Biol. 22: 298-301 (1984)).
Method: 0.5 ml of NBT solution was added to 0.5 ml of peritoneal macrophages (1×10^6 cells/ml) in a micro-centrifuge tube. This mixture was incubated at 37° C. for 45 minutes. The cell suspension was centrifuged at 1500 rpm for 10 minutes. Supernatant was discarded and pellet was re-suspended in 2 ml of DMSO. The tubes were kept in a boiling water bath for 10 minutes. The tubes were again centrifuged at 1500 rpm for 10 minutes. The supernatant was collected, and absorbance was measured at 515 nm.

[2] = mouse, in vivo
Procedure: (§3) Male and female Swiss albino mice (n=8; 4 from each gender) weighing approximately 25±5 g, were obtained from National Research Institute of Ayurveda for Drug Development (Govt. of India), Kolkata, and were housed in polypropylene cages at 22±3° C., relative air humidity of 45 to 55%, with 12.00 h light & dark cycle (lighting on from 6:00 AM to 6:00 PM). […] The mice were acclimatized for one week in the laboratory conditions, before being used in the experiment. All experiments were conducted between 10.00 h and 14.00 h. Principles of laboratory animal care (NIH publication no. 85-23, revised 1985) was followed.
(§4) Cyclophosphamide was dissolved in distilled water and the mice were administered a single exposure (250 mg/kg, i.p.) on day 1.
(§5) 3-OH-DBP, 3,8-(OH)2-DBP, and combined 3-OH-DBP+3,8-(OH)2-DBP were administered once daily for 7 days starting from day 1. Following 7 days of treatment the mice were anaesthetized and sacrificed under anaesthesia followed by collection of peritoneal macrophages and spleen (for splenocyte isolation).
(§6) Swiss albino mice were randomly divided into 8 Groups (n=8; 4 from each gender). […] (2:10) (12 mg/kg b.w., p.o.), Group VI mice were administered 3-OH-DBP (10 mg/kg b.w., p.o.), Group VII mice were administered 3,8-(OH)2-DBP (50 mg/kg b.w., p.o.), Group VIII mice were administered [3-OH-DBP+3,8-(OH)2-DBP] (10:50) (60 mg/kg b.w., p.o.).
(§7) Results were expressed in terms of mean±SEM (n=8; 4 from each gender). Data were subjected to one way ANOVA followed by Tukey's test using GraphPad Prism 4.0 software to establish statistical significance (*p<0.05, **p<0.01, ***p<0.001, where * refers to comparison with Group I vehicle control; #p<0.05, ##p<0.01, ###p<0.001, where #refers to comparison with Group II cyclophosphamide administration; ^ap<0.05, ^aap<0.01, ^aap<0.01, where a refers to comparison of Day 7 with Day 0).

splenocytes [3] = assay: Splenocyte viability, trypan blue exclusion (Example III); type: in vivo, Swiss albino mice; conditions: for % Viability Day7, splenocyte viability: Day 7
Procedure: as §3, §4, §5, §6
Spleens were collected and single cell suspension was prepared by mincing and tapping the spleen fragments on stainless steel 200-mesh in ice cold phosphate buffer saline (PBS: 0.15M NaCl; pH: 7.4). Cell suspensions were centrifuged at 2000 rpm for 10 minutes.
as §7

peritoneal macrophages [4] = assay: NBT reduction of peritoneal macrophages (Example III); type: in vivo, Swiss albino mice; conditions: for NBT reduction compared with vehicle control: cyclophosphamide, 3-OH-DBP 2 and 10 mg/kg, combined 12 mg/kg
Procedure: as §3, §4, §5, §6
(§8) All the animals were sacrificed under ether anesthesia and peritoneal macrophages were lavaged using ice cold phosphate buffer saline (PBS: 0.15 M NaCl; pH: 7.4). After centrifugation (3000 rpm×10 min) at 4° C., pellets were re-suspended in PBS and cell viability was confirmed by trypan blue exclusion assay.
Preparation of NBT solution: 0.2% NBT (nitroblue tetrazolium) in PBS (pH 7.4), 5% dextrose and HBSS. These three solutions were mixed in 6:2:4 ratios.
0.5 ml of NBT solution was added to 0.5 ml of peritoneal macrophages (1×10^6 cells/ml) in micro-centrifuge tube. This mixture was incubated at 37° C. for 2 hours. The cell suspension was centrifuged at 2000 rpm for 10 minutes. Supernatants were discarded and pellets were re-suspended in 1 ml of DMSO. The tubes were kept in boiling water bath for 10 minutes and then cooled and centrifuged at 2000 rpm for 10 minutes. The supernatants were collected and absorbance was measured at 515 nm.
as §7

splenocytes [5] = assay: Cell viability of splenocytes, trypan blue exclusion, cyclophosphamide-induced immunosuppression (Example II); type: in vivo, Swiss albino mice; conditions: 10 mg/kg body weight p.o. 7 days + cyclophosphamide 250 mg/kg i.p.; Mean ± SD, n = 6
Procedure: as §1, §2
Spleen was collected. Single cell suspension was prepared by mincing and tapping the spleen fragments on stainless steel 200-mesh in ice cold phosphate buffer saline (PBS: 0.15M NaCl pH 7.4). Cell suspension was centrifuged at 2000 rpm for 10 minutes. The pellet was re-suspended in PBS and cell viability was confirmed by trypan blue exclusion method.

peritoneal macrophages [6] = assay: Peritoneal macrophage viability, trypan blue exclusion (Example III); type: in vivo, Swiss albino mice
Procedure: as §3, §4, §5, §6, §8, §7

[7] = female mice, 3-OH-DBP 2 and 10 mg/kg, 3,8-(OH)2-DBP 10 and 50 mg/kg, combined 12 and 60 mg/kg
[8] = female mice, 2 mg/kg p.o. + cyclophosphamide 250 mg/kg i.p.
[9] = female mice, 10 mg/kg p.o. + cyclophosphamide 250 mg/kg i.p.
[10] = male mice, 3-OH-DBP 10 mg/kg, 3,8-(OH)2-DBP 50 mg/kg, combined 60 mg/kg
[11] = male mice, 2 mg/kg p.o. + cyclophosphamide 250 mg/kg i.p.
[12] = male mice, 10 mg/kg p.o. + cyclophosphamide 250 mg/kg i.p.

Question: Which “OD (515 nm), NBT reduction assay in peritoneal macrophages” value (peritoneal macrophages [1]; 10 mg/kg body weight p.o. 7 days + cyclophosphamide 250 mg/kg i.p., Mean ± SD, n = 6) does the source give for `O=c1oc2cc(O)ccc2c2ccccc12` [3-OH-DBP, 3-hydroxy-dibenzo-alpha-pyrone] here?
Answer: Its value is 0.154 ± 0.019.

Question: What about the “improvement in NBT reduction capacity” value (peritoneal macrophages [1]; 10 mg/kg body weight p.o., in comparison with cyclophosphamide treated mice) of the same compound?
Answer: The value was “moderate (p<0.05) improvement”.

Question: And the “feed intake Day 7 in comparison to Day 0” value [2]?
Answer: The value was “significantly (p<0.05, p<0.01) decreased”.

Question: And the “feed intake compared to vehicle control” value [2]?
Answer: Its value is “significantly (p<0.05, p<0.01) decreased”.

Question: And the “water intake compared with cyclophosphamide treated mice” value [2]?
Answer: The value was “significantly (p<0.001) decreased”.

Question: And the “water intake compared with vehicle control” value [2]?
Answer: Its value is “significantly (p<0.001) decreased”.

Question: What about the “water intake compared with vehicle control and cyclophosphamide treated mice” value [2] of the same compound?
Answer: The value was “significantly (p<0.05, p<0.001) decreased”.

Question: And the “splenocyte viability compared with cyclophosphamide treated mice” value (splenocytes [3]; [7])?
Answer: Its value is “significantly (p<0.05, p<0.01, p<0.001) increased”.

Question: What about the “% Viability Day7, splenocyte viability” value (splenocytes [3]; [8]) of the same compound?
Answer: The value was 88.40 ± 1.61# %.

Question: And the “% Viability Day7, splenocyte viability” value (splenocytes [3]; [9])?
Answer: Its value is 90.77 ± 1.77## %.

Question: What about the “splenocyte viability compared with cyclophosphamide treated mice” value (splenocytes [3]; [10]) of the same compound?
Answer: Its value is “significantly higher”.

Question: What about the “% Viability Day7, splenocyte viability” value (splenocytes [3]; [11]) of the same compound?
Answer: The value was 69.34 ± 1.84*** %.

Question: And the “% Viability Day7, splenocyte viability” value (splenocytes [3]; [12])?
Answer: The value was 80.9 ± 1.24## %.

Question: And the “splenocyte viability compared with vehicle control” value (splenocytes [3]; male mice, cyclophosphamide, 2 mg/kg 3-OH-DBP, 10 mg/kg 3,8-(OH)2-DBP, 12 mg/kg combined)?
Answer: The value was “similarly decreased”.

Question: And the “NBT reduction compared with cyclophosphamide treated mice” value (peritoneal macrophages [4]; female mice, 3-OH-DBP 10 mg/kg, 3,8-(OH)2-DBP 50 mg/kg, combined 12 and 60 mg/kg)?
Answer: Its value is “significantly (p<0.05, p<0.01, p<0.001) increased”.

Question: And the “O.D. (515 nm) Day 7, NBT reduction of peritoneal macrophages” value (peritoneal macrophages [4]; [8])?
Answer: The value was 0.142 ± 0.005***.

Question: And the “O.D. (515 nm) Day 7, NBT reduction of peritoneal macrophages” value (peritoneal macrophages [4]; [9])?
Answer: Its value is 0.207 ± 0.02**,##.

Question: And the “NBT reduction compared with vehicle control” value (peritoneal macrophages [4]; female mice, 3,8-(OH)2-DBP 10 and 50 mg/kg)?
Answer: The value was “significantly (p<0.05, p<0.01, p<0.001) decreased”.

Question: And the “O.D (515 nm) Day 7, NBT reduction of peritoneal macrophages” value (peritoneal macrophages [4]; [11])?
Answer: Its value is 0.257 ± 0.02338***.

Question: And the “O.D (515 nm) Day 7, NBT reduction of peritoneal macrophages” value (peritoneal macrophages [4]; [12])?
Answer: Its value is 0.232 ± 0.04097***.

Question: What about the “NBT reduction compared with vehicle control” value (peritoneal macrophages [4]; male mice, 3,8-(OH)2-DBP 10 mg/kg) of the same compound?
Answer: The value was “significantly (p<0.01, p<0.001) decreased”.

Question: And the “% Cell Viability of splenocytes” value (splenocytes [5])?
Answer: Its value is 59.70 ± 3.59%.

Question: And the “peritoneal macrophage viability compared with cyclophosphamide treated mice” value (peritoneal macrophages [6]; [7])?
Answer: Its value is “significantly (p<0.05, p<0.01) increased”.

Question: What about the “% Viability Day 7, peritoneal macrophage viability” value (peritoneal macrophages [6]; [8]) of the same compound?
Answer: The value was 62.53 ± 2.14** %.

Question: And the “% Viability Day 7, peritoneal macrophage viability” value (peritoneal macrophages [6]; [9])?
Answer: Its value is 72.56 ± 2.01^# %.

Question: And the “peritoneal macrophage viability compared with cyclophosphamide treated mice” value (peritoneal macrophages [6]; [10])?
Answer: The value was “significantly (p<0.05, p<0.01) increased”.

Question: And the “% Viability Day 7, peritoneal macrophage viability” value (peritoneal macrophages [6]; [11])?
Answer: The value was 59.90 ± 0.51* %.

Question: What about the “% Viability Day 7, peritoneal macrophage viability” value (peritoneal macrophages [6]; [12]) of the same compound?
Answer: The value was 69.64 ± 2.77# %.

Question: What about the “peritoneal macrophage viability compared with vehicle control” value (peritoneal macrophages [6]; male mice, cyclophosphamide, 3-OH-DBP 2 mg/kg, 3,8-(OH)2-DBP 10 mg/kg) of the same compound?
Answer: The value was “significantly (p<0.05) decreased”.
